Legend:
P2X7 [1] = molecular target: T1, P2X7 (Homo sapiens, UniProt Q99572); experiment: Pore permeation assay (YO PRO dye uptake, BzATP-induced); type: cell-based; set-up: expressed in transfected cells; host or cells: HEK293; conditions: HEK293 transfected with human P2X7 receptor, BzATP 10 uM, read-out: hP2X7 IC50
T1 sequence (Q99572 1-595): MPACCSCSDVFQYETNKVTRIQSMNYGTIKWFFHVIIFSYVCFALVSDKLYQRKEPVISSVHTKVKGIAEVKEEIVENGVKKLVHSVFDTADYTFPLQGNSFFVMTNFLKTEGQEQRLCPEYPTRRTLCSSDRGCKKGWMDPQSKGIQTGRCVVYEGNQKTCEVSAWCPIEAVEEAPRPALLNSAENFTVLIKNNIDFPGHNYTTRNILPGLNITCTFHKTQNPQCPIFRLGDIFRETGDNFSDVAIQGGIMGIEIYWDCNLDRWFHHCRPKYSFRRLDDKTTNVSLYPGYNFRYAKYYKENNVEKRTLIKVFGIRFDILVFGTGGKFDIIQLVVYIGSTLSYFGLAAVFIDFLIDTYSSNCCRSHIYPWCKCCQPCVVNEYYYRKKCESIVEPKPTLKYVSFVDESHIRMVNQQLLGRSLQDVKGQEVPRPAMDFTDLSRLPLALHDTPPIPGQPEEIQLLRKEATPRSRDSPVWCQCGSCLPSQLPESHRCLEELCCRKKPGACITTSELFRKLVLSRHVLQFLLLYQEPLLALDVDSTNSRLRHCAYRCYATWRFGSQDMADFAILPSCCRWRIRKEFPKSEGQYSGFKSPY
Method: Agonist-induced pore formation was determined by measuring cellular uptake of YO PRO fluorescence dye in HEK293 transfected with human P2X7 receptor. A HEK293 cell over expressing human P2X7 was harvested using HQTase reagent to detach the cells from T75 cm flask. The harvested cells are centrifuged @1200 rpm for 5 min at room temperature. The viability of cells was determined by Trypan blue dye and the cells are plated @10,000 cell/well in 50 ul volume in a 384W BD Poly lysine coated plate and incubated overnight at 37 C. After overnight incubation, the culture medium was replaced with 35 ul/well assay buffer (5 mM KCl, 0.1 mM CaCl2, 5 mM Glucose, 10 mM HEPES buffer pH7.4 containing 125 mM NaCl. The serial dilution of compounds was performed using Bravo liquid handling instrument and the compounds were added using Bravo to the cell assay plate starting at 2.5 uM with three dilutions for 10 points. The positive control inhibitor compound was added to column 23. The plate was shaken slowly on a plate shaker for 10 seconds. The cells were incubated with the compound for 20 minutes at room temperature. After the incubation period, YO PRO dye (1 uM) along with BzATP (10 uM) were added to cells at 10 ul/well. The plate was centrifuged at 1000 rpm for 5 seconds and incubated at room temperature for 30 minutes. The uptake of YO PRO dye into the cells was measured using Envision Fluorescence plate reader instrument (Perkin Elmer).

P2X7 [2] = molecular target: T1, P2X7; experiment: IL-1β release assay in THP-1 cells (sandwich ELISA, BzATP-stimulated); type: cell-based; set-up: endogenous in cells; host or cells: THP-1 cells (PMA-differentiated, LPS-primed); conditions: LPS primed, 0.8 mM BzATP, mature IL-1β release, read-out: hTHP-1/IL-ib IC50
Method: IL-1β release assay: The activation of P2X7 by ATP leads to a fast transient activation of cells resulting in influx of Ca^2+ followed by conversion of pro-IL-1β to active IL-1β. The functional activity of P2X7 compounds was measured by the release of mature IL-1β in the culture medium of THP-1 cells, detected by sandwich ELISA. Cells were maintained in complete growth medium (RPMI 1640+10% HI-FCS+2 mM L-glutamine+1× PS). […] THP-1 cells were harvested from the flask in 50 ml by centrifugation for 3 min at 100 g. The cells were resuspended to 2×10^5 cells/ml in medium supplemented with 0.5 μM PMA and incubated. The cells were washed and resuspended to 1.5×10^5 cells/ml in medium complemented with 10 ng/ml LPS, and the cells were primed for 4 h at 37° C., 5% CO2. After addition of 20 μL of prediluted test compounds, blank, standard and control reagents, cells were incubated for a further 20 min at 37° C. and stimulated with 0.8 mM BzATP for 30 minutes. The cells were centrifuged, supernatant was collected and the presence of mature IL-1β was detected using Dual human IL-1b kit following manufacturer's instruction. The tetrahydrobenzodiazepine analogs effectively modulated the activity of P2X7 in the cells as measured by the levels of pro-inflammatory cytokine IL-1β, which is released by the activation of P2X7 receptor.

| SMILES | IC50 (P2X7 [1]) [nM] | IC50 (P2X7 [2]) [nM] |
| --- | --- | --- |
| COCCc1cc(C(=O)NCC2(O)CCC(F)(F)C(C)C2)c2c(Cl)cccn12 (stereo not drawn) [Compound 43, 8-chloro-N-((4,4-difluoro-1-hydroxy-3-methylcyclohexyl)methyl)-3-(2-methoxyethyl)indolizine-1-carboxamide] | 10 to 100 | 101 to 500 |
| CCOCCc1cc(C(=O)NC[C@@]2(O)CCC[C@@H](C)C2)c2c(Cl)cccn12 [Compound 73] | 10 to 100 | 10 to 100 |
| C[C@@H]1CCC[C@](O)(CNC(=O)c2cc(C3CCC3)n3cccc(Cl)c23)C1 [Compound 71, 8-chloro-3-cyclobutyl-N-(((1R,3R)-1-hydroxy-3-methylcyclohexyl)methyl) indolizine-1-carboxamide] | 10 to 100 | 10 to 100 |
| CC1CC(O)(CNC(=O)c2cc(C3CCOCC3)n3cccc(Cl)c23)CCC1(F)F (stereo not drawn) [Compound 41, 8-chloro-N-((4,4-difluoro-1-hydroxy-3-methylcyclohexyl)methyl)-3-(tetrahydro-2H-pyran-4-yl)indolizine-1-carboxamide] | 101 to 500 | 10 to 100 |
| COCCc1cc(C(=O)NCC2CCCCCC2)c2c(Cl)cccn12 [Compound 1, 8-chloro-N-(cycloheptylmethyl)-3-(2-methoxyethyl)indolizine-1-Carboxamide] | 10 to 100 | 101 to 500 |
| CCOCCc1cc(C(=O)NCC2(O)CCC(F)(F)CC2)c2c(Cl)cccn12 [Compound 69, 8-Chloro-3-(2-ethoxy-ethyl)-indolizine-1-carboxylic Acid (4,4-difluoro-1-hydroxy-cyclohexylmethyl)-amide] | 101 to 500 | 101 to 500 |
| COCCc1cc(C(=O)NC[C@@]2(O)CCC[C@@H](C)C2)c2c(C(F)(F)F)cccn12 [Compound 22, 3-(2-Methoxy-ethyl)-8-trifluoromethyl-indolizine-1-carboxylic Acid ((1R,3R)-1-hydroxy-3-methyl-cyclohexylmethyl)-amide] | 10 to 100 | 10 to 100 |
| O=C(NCC1CCC(F)(F)CC1)c1cc(CCO)n2cccc(Cl)c12 [Compound 51, 8-chloro-N-((4,4-difluorocyclohexyl)methyl)-3-(2-hydroxyethyl)indolizine-1-carboxamide] | 10 to 100 | 101 to 500 |
| COCCc1cc(C(=O)NC[C@@]2(O)CCC[C@@H](C)C2)c2c(Cl)cccn12 [Compound 18] | 10 to 100 | 10 to 100 |

Other lines, results leading:

| IC50 (P2X7 [1]) [nM] | IC50 (P2X7 [2]) [nM] | SMILES |
| --- | --- | --- |
| < 10 | 10 to 100 | COCCc1cc(C(=O)NCC2CCCC3(CC3)C2)c2c(Cl)cccn12 (stereo not drawn) [Compound 2, 8-chloro-3-(2-methoxyethyl)-N-(spiro[2.5]octan-5-ylmethyl)indolizine-1-carboxamide] |
| < 10 | < 10 | COCCc1cc(C(=O)NCC2(O)CCCC(F)(F)C2)c2c(Cl)cccn12 (stereo in doubt) [Compound 63, 8-Chloro-3-(2-methoxy-ethyl)-indolizine-1-carboxylic Acid ((S)-3,3-difluoro-1-hydroxy-cyclohexylmethyl)-amide] |
| 10 to 100 | 10 to 100 | O=C(NC[C@]1(O)CCCC(F)(F)C1)c1cc(C2CCOC2)n2cccc(Cl)c12 (stereo partly drawn) [Compound 67, 8-chloro-N—(((S)-3,3-difluoro-1-hydroxycyclohexyl)methyl)-3-(tetrahydrofuran-3-yl)indolizine-1-carboxamide] |
| 10 to 100 | 10 to 100 | [2H]C([2H])([2H])OCCc1cc(C(=O)NCC2CCC(F)(F)CC2)c2c(Cl)cccn12 [Compound 72] |
| < 10 | 10 to 100 | O=C(NCC1(O)CCCC(F)(F)C1)c1cc(C2CCCO2)n2cccc(Cl)c12 (stereo not drawn) [Compound 54, 8-Chloro-3-(tetrahydro-furan-2-yl)-indolizine-1-carboxylic Acid (3,3-difluoro-1-hydroxycyclohexyl methyl)-amide] |
| < 10 | 10 to 100 | CC1CC(CNC(=O)c2cc(CCO)n3cccc(Cl)c23)CCC1(F)F (stereo not drawn) [Compound 32, 8-chloro-N-((4,4-difluoro-3-methylcyclohexyl)methyl)-3-(2-hydroxyethyl) indolizine-1-carboxamide] |
